{"source": "patent US6337320B1", "about": "“Reparatives for ultraviolet radiation skin damage” (Thione International, Inc., priority 1996, dated 2002)", "origin": "cited, not measured here", "key": {"[1]": {"system": "vitamin E deficient chicks"}, "[2]": {"settings": "oral, prolonged periods"}}}
{"compound": "C[Se]CC[C@H](N)C(=O)O", "note": "[selenomethionine]", "values": [{"measurement": "skin levels of selenium dependent glutathione peroxidase", "setting": "patients with psoriasis; normal and psoriatic skin", "value": "unchanged"}, {"measurement": "increase in blood levels post treatment", "setting": "patients with psoriasis; psoriasis patients with normal pretreatment selenium blood levels", "value": 40, "unit": "%"}, {"measurement": "number of CD4+T-cells", "setting": "patients with psoriasis; reticular dermis of the psoriatic lesions", "value": "statistically significant increase"}, {"measurement": "in vivo lipid peroxidation in tissues", "setting": "[1]", "value": "inhibits"}, {"measurement": "concentration of selenium in skin in areas of topical application", "setting": "mice; lotion, topical vs comparable oral doses", "value": "greater than those of the experimental animals given comparable oral doses"}, {"measurement": "skin damage by ultraviolet irradiation (inflammation, pigmentation, onset and incidence of skin cancers)", "setting": "mice; mice treated with selenomethionine, ultraviolet irradiation", "value": "significantly less skin damage"}, {"measurement": "selenium toxicity", "setting": "mice; mouse, in vivo, po", "value": "no evidence of selenium toxicity"}, {"measurement": "protection against acute UV damage to the skin, as measured by the minimal erythema dose", "setting": "human subjects; eight women, topical lotion 0.002%, 0.02% and 0.05%", "value": "effective"}, {"measurement": "plasma levels of selenium", "setting": "human subjects; volunteers, topical application", "value": "remained unchanged"}]}
{"compound": "[Se]", "note": "[selenium]", "values": [{"measurement": "dose at which selenium toxicities occur", "setting": "[2]", "value": "> 4000", "unit": "micrograms per day"}]}
{"compound": "(−)epigallo catechin gallate [EGCG]", "values": [{"measurement": "hydrogen peroxide formation", "setting": "human leukocytes", "value": "inhibits"}]}
